The term viability denotes a read-out of living cells in per cent, often relative to untreated cells.

Data set [1] in a line: in vitro. Also on record: species or system HB2, HEK293. Conditions: human, ccd841 cells.
A further data set deals with T1, PCAF (Homo sapiens, UniProt Q92831).
T1 construct: gene KAT2B
Also on record: Intact protein LC/MS covalent labelling, fragments in pools of five, 200 uM each, 4 °C. Conditions: 24 h, 4 °C, pool of five; 200 µM; covalent.

The target of the next data set is T2, BSA (Bos taurus, UniProt P02769).
T2 construct: gene ALB
On the set-up: Intact protein LC/MS covalent labelling, fragments in pools of five, 200 uM each, 4 °C. Conditions: 24 h, 4 °C, pool of five; 200 µM; covalent.

In another data set the target is T3, OTUB2 (OTUB2A) (Homo sapiens, UniProt Q96DC9).
T3 construct: full length residues 1-234, E. coli BL21(DE3)-R3, His tag removed by TEV, construct 27312 Da
T3 sequence (Q96DC9 1-234): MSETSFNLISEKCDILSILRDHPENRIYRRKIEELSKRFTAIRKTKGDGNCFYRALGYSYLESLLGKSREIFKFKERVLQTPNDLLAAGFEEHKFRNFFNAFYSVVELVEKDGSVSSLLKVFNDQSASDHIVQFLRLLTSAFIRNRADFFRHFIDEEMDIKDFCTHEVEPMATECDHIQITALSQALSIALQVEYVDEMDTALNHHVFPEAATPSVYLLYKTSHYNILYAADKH
On the set-up: Intact protein LC/MS covalent labelling, fragments in pools of five, 200 uM each, 4 °C. Conditions: 24 h, 4 °C, pool of five; 200 µM; covalent.

The target in another data set is T4, NUDT7 (Homo sapiens, UniProt P0C024).
T4 construct: residues 14-235, E. coli, pNIC28-Bsa4, N-terminal His6 tag removed by TEV, construct 26672 Da
On the set-up: Intact protein LC/MS covalent labelling, fragments in pools of five, 200 uM each, 4 °C. Conditions: 24 h, 4 °C, pool of five; 200 µM; covalent.

Data set [2] can be described thus: in vitro. On the set-up: species or system CCD841, HEK293. Conditions: human, hb2 cells, read-out: HB-2 Cells Viability (%).
Data set [3] can be described thus: in vitro. Also on record: species or system HB2, CCD841. Conditions: human, hek293 cells.

Each structure is given as a SMILES string. Where two headings read alike, the source gives them in different places.

T4 sequence (P0C024 14-235): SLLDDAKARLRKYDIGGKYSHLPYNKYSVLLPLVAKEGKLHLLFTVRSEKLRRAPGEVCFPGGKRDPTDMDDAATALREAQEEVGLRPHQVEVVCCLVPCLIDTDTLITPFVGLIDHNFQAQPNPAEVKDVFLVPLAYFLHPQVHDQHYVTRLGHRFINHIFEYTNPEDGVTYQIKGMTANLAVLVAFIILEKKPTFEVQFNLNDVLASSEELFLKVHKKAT
T1 sequence (Q92831 whole entry): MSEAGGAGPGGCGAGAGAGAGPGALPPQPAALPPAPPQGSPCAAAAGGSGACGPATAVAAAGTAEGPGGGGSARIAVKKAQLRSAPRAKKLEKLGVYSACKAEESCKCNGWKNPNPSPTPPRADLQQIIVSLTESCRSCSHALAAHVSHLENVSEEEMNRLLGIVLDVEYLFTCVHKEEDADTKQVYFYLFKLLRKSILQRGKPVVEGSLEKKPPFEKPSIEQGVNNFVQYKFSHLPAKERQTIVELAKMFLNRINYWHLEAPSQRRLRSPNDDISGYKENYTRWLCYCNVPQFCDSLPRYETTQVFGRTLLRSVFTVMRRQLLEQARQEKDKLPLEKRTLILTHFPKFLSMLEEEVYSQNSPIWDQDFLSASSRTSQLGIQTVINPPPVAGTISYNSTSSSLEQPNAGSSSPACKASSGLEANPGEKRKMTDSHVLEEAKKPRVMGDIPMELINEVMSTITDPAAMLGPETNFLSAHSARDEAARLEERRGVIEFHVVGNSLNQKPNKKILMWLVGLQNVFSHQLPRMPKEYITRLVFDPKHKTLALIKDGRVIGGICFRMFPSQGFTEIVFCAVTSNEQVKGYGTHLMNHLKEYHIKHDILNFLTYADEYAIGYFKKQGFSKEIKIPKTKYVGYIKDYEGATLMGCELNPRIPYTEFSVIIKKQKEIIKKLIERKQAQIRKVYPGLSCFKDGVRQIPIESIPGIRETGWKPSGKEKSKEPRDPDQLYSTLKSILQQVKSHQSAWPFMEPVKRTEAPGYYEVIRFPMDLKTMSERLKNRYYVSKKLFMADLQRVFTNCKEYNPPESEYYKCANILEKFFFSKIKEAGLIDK
T2 sequence (P02769 whole entry): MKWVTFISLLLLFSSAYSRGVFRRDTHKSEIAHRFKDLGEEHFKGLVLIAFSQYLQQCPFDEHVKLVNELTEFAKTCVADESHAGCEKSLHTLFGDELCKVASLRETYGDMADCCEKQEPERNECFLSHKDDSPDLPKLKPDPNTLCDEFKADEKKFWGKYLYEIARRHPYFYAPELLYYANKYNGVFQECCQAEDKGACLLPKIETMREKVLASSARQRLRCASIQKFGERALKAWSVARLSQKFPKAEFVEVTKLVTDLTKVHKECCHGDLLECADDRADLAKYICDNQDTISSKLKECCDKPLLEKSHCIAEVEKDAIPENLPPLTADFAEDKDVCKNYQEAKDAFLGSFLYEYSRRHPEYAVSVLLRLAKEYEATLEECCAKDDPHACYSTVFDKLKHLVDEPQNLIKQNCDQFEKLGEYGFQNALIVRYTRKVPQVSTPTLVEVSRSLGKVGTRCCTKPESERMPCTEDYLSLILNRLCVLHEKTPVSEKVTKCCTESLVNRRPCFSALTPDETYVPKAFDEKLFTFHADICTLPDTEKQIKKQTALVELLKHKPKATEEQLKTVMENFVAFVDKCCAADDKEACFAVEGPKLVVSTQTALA

Take `CC(NC(=O)CCl)c1ccc(Cl)cc1Cl` (centres unmarked) [PCM-0102212]: the viability at 48 h, 10 µM in the data set “in vitro [1]” was determined as 58.2%; in “in vitro [2]”, 37.4%; in the data set “in vitro [3]”, 37.3%. Besides, the PCAF on PCAF was found to be 0. On BSA, this molecule yielded a BSA of 0. On OTUB2 (OTUB2A), this molecule showed an OTUB2 of 0.18. This molecule registered an NUDT7 on NUDT7 of 0.54.

As for `C=CC(=O)N1CCC(C(=O)N(C)c2ccccc2)C1` (centres unmarked) [PCM-0102771], the results for the viability at 48 h, 10 µM in the data set “in vitro [1]”, in the data set “in vitro [2]” and in “in vitro [3]” were 106%, 100% and 72.2%, respectively. On PCAF, the PCAF amounted to 0. Besides, the BSA at BSA amounted to 0. Moreover, the OTUB2 at OTUB2 (OTUB2A) amounted to 0. The NUDT7 at NUDT7 turned out to be 0.

For `C=CC(=O)N1CCOCC1c1cccn1C` (centres unmarked) [PCM-0102721], the viability at 48 h, 10 µM in the data set “in vitro [1]” was 92.8%; in “in vitro [2]”, 102%; in “in vitro [3]” it was 97.2%. The PCAF on PCAF was 0. Moreover, the BSA at BSA stood at 0. Moreover, at OTUB2 (OTUB2A), the OTUB2 is reported as 0. This molecule displayed an NUDT7 on NUDT7 of 0.

Regarding `C=CC(=O)N1CCCN(C(=O)C2CCCO2)CC1` (centres unmarked) [PCM-0102519], the viability at 48 h, 10 µM worked out at 108% in the data set “in vitro [1]”, 98.2% in “in vitro [2]” and 95.5% in the data set “in vitro [3]”. Besides, the PCAF at PCAF is given as 0. In addition, the BSA on BSA came out at 0. For the same molecule, the OTUB2 at OTUB2 (OTUB2A) is 0. On NUDT7, this molecule returned an NUDT7 of 0.

As for `C=CC(=O)Nc1ccc(Cl)cc1` [PCM-0102537], the viability at 48 h, 10 µM in “in vitro [1]” came out at 89.3%; in the data set “in vitro [2]” it was 95.5%; in the data set “in vitro [3]” it was 81.5%. Besides, the PCAF at PCAF came to 0. Further, the BSA on BSA was found to be 0. Further, at OTUB2 (OTUB2A), the OTUB2 is 0. Moreover, the NUDT7 on NUDT7 was 0.12.

For the molecule `O=C(CCl)NCC(F)(F)F` [PCM-0102456], the viability at 48 h, 10 µM in “in vitro [1]” was found to be 99.4%; in “in vitro [2]” it was 102%; in the data set “in vitro [3]”, 91.9%. On PCAF, this molecule had a PCAF of 0. For the same molecule, at BSA, the BSA worked out at 0. Moreover, on OTUB2 (OTUB2A), the OTUB2 is on record as 0. On NUDT7, this molecule showed an NUDT7 of 0.

For `Cc1ccc([N+](=O)[O-])cc1NC(=O)CCl` [PCM-0102098], the viability at 48 h, 10 µM in the data set “in vitro [1]” is 2%; in the data set “in vitro [2]”, 1.1%; in the data set “in vitro [3]”, 1.2%. At PCAF, this molecule yielded a PCAF of 0. On BSA, the BSA was found to be 0. Also, on OTUB2 (OTUB2A), the OTUB2 is 0.33. The molecule also registered an NUDT7 at NUDT7 of 0.12.

For the molecule `O=C1CN(C(=O)CCl)c2ccccc2N1` [PCM-0102362], the values for the viability at 48 h, 10 µM in the data set “in vitro [1]”, in the data set “in vitro [2]” and in the data set “in vitro [3]” were 92.6%, 79.8% and 61.4%, respectively. The molecule also came in with a PCAF at PCAF of 0. The molecule further registered a BSA on BSA of 0. The molecule also gave an OTUB2 at OTUB2 (OTUB2A) of 0. The molecule also showed an NUDT7 at NUDT7 of 0.

Consider `C=CC(=O)NCC1=CCCCC1` [PCM-0102726], for which the figures for the viability at 48 h, 10 µM in the data set “in vitro [1]”, in “in vitro [2]” and in “in vitro [3]” were 99.1%, 105% and 89.9%, respectively. Besides, at PCAF, the PCAF is reported as 0. The molecule also registered a BSA on BSA of 0.1. The same molecule displayed an OTUB2 on OTUB2 (OTUB2A) of 0. Also, the NUDT7 at NUDT7 is 0.

On to `O=C(CCl)NCC1CCCO1` (centres unmarked) [PCM-0102356], for which the viability at 48 h, 10 µM in “in vitro [1]” is 104%; in the data set “in vitro [2]”, 91.4%; in the data set “in vitro [3]” it was 102%. For the same molecule, at PCAF, the PCAF came to 0. At BSA, this molecule came in with a BSA of 0. Further, the OTUB2 at OTUB2 (OTUB2A) was 0.05. On NUDT7, this molecule came in with an NUDT7 of 0.

With `C=CC(=O)N1CCCC(NS(C)(=O)=O)C1` (centres unmarked) [PCM-0102522], the viability at 48 h, 10 µM came to 112% in the data set “in vitro [1]”, 106% in “in vitro [2]” and 106% in the data set “in vitro [3]”. Also, at PCAF, the PCAF was found to be 0. The same molecule displayed a BSA at BSA of 0. At OTUB2 (OTUB2A), this molecule had an OTUB2 of 0. The NUDT7 at NUDT7 is listed as 0.

In the case of `O=C(CCl)NC(=O)Nc1ccccc1F` [PCM-0102376], the values for the viability at 48 h, 10 µM in “in vitro [1]”, in “in vitro [2]” and in “in vitro [3]” were 80.5%, 63.5% and 67.8%, respectively. The molecule further returned a PCAF on PCAF of 0. Moreover, the BSA at BSA was 0. At OTUB2 (OTUB2A), this molecule came in with an OTUB2 of 0. The NUDT7 on NUDT7 is 0.

In the case of `Cc1ccccc1C(=O)NC1CCN(C(=O)CCl)CC1` [PCM-0103013], the viability at 48 h, 10 µM in the data set “in vitro [1]” came out at 76.5%; in the data set “in vitro [2]” it was 84.4%; in the data set “in vitro [3]”, 58.4%. Also, on PCAF, the PCAF worked out at 0. The molecule also had a BSA on BSA of 0.1. Besides, the OTUB2 on OTUB2 (OTUB2A) is given as 0. On NUDT7, this molecule gave an NUDT7 of 0.

As for `Cl.O=C(CCl)N1CCN(Cc2ccccc2F)CC1` [PCM-0102387], the viability at 48 h, 10 µM in “in vitro [1]” turned out to be 67.2%; in the data set “in vitro [2]”, 24%; in the data set “in vitro [3]” it was 35.1%. This molecule came in with a PCAF at PCAF of 0. The molecule also had a BSA at BSA of 0. Also, on OTUB2 (OTUB2A), the OTUB2 came to 0.32. In addition, the NUDT7 on NUDT7 came to 0.

For `O=C(CCl)N1CCN(S(=O)(=O)c2ccc3c(c2)CCC3)CC1` [PCM-0102193], the viability at 48 h, 10 µM worked out at 20.9% in the data set “in vitro [1]”, 2.7% in the data set “in vitro [2]” and 2.8% in “in vitro [3]”. Also, the PCAF on PCAF is 0. This molecule also showed a BSA at BSA of 0. The molecule further returned an OTUB2 at OTUB2 (OTUB2A) of 0. The molecule further came in with an NUDT7 on NUDT7 of 0.

`C=CC(=O)N1CCCc2[nH]c3ccc(F)cc3c2C1` [PCM-0102485]: the viability at 48 h, 10 µM in “in vitro [1]” turned out to be 106%; in “in vitro [2]”, 95.2%; in “in vitro [3]”, 105%. At PCAF, this molecule registered a PCAF of 0. Further, the BSA at BSA was 0.12. Also, the OTUB2 at OTUB2 (OTUB2A) was 0. At NUDT7, the NUDT7 was 0.

Turning to `O=C(NC1CCN(C(=O)CCl)CC1)c1ccccc1` [PCM-0102575], the values for the viability at 48 h, 10 µM in the data set “in vitro [1]”, in “in vitro [2]” and in the data set “in vitro [3]” were 68.2%, 63.8% and 40.6%, respectively. At PCAF, this molecule came in with a PCAF of 0. Also, the BSA at BSA amounted to 0. Further, the OTUB2 at OTUB2 (OTUB2A) came out at 0.09. Also, at NUDT7, the NUDT7 turned out to be 0.09.

As for `O=C(CCl)Nc1ccc(O)cc1` [PCM-0102163], the results for the viability at 48 h, 10 µM in “in vitro [1]”, in “in vitro [2]” and in “in vitro [3]” were 60.5%, 67.8% and 38.2%, respectively. The molecule further gave a PCAF at PCAF of 0. The same molecule yielded a BSA on BSA of 0. At OTUB2 (OTUB2A), this molecule came in with an OTUB2 of 0.16. The same molecule yielded an NUDT7 at NUDT7 of 0.

With `CCc1ccccc1NC(=O)CCl` [PCM-0102369], the viability at 48 h, 10 µM is 76.1% in “in vitro [1]”, 78.3% in “in vitro [2]” and 56.7% in “in vitro [3]”. For the same molecule, the PCAF at PCAF turned out to be 0. For the same molecule, the BSA on BSA worked out at 0. For the same molecule, the OTUB2 on OTUB2 (OTUB2A) is reported as 0. The NUDT7 on NUDT7 is 0.

In the case of `O=C(CCl)N1CCOC2CCCCC21` (centres unmarked) [PCM-0102940], the viability at 48 h, 10 µM was determined as 95.8% in “in vitro [1]”, 93.7% in “in vitro [2]” and 74% in the data set “in vitro [3]”. In addition, the PCAF on PCAF was found to be 0. On BSA, the BSA came to 0. This molecule showed an OTUB2 on OTUB2 (OTUB2A) of 0. Moreover, the NUDT7 at NUDT7 worked out at 0.

Source of the values: article PMC6556873, “Rapid Covalent-Probe Discovery by Electrophile-Fragment Screening” (Journal of the American Chemical Society, 2019).
